Source: US6464839B1, “Beta-elemene, method to prepare the same and uses thereof” (Yuan da International Group Limited, priority 1997, dated 2002)

Columns and labels:
S180 ascites cancer = assay: S180 ascites cancer, animal pharmacodynamic study; conditions: intra-peritoneal injection
EAC = EAC ascites carcinoma, animal pharmacodynamic study; conditions: EAC ascites cancer, intra-peritoneal injection
[1] = Side effects in animal pharmacodynamic studies (bone marrow, white blood cell count); type: in vivo
[2] = tested on: murine Ehrlich ascites carcinoma; conditions: material with beta-elemene 65%, gamma and delta-elemene 20%, impurities 15%; cited from earlier work
hepatic solid tumor = assay: Hepatic solid tumor, animal pharmacodynamic study
[3] = tested on: hepatic ascites carcinoma; assay: Hepatic ascites carcinoma, animal pharmacodynamic study
[4] = Passage through the brain-blood barrier; type: in vivo; conditions: work of the Department of Embryology, Dalian Medical University
S180 solid tumor = assay: S180 solid tumor, animal pharmacodynamic study; conditions: injection
cerebral neuroglioma = assay: Cerebral neuroglioma, murine sub-renal capsule model; type: in vivo
Source text: (D) Neuroglioma: It was indicated in the pharmacodynamic study of cerebral neuroglioma using murine sub-renal capsule model that the inhibition rate was 50-70%.

[5] = tested on: thalamic glioblastoma; brain metastasis of lung cancer; assay: Treatment of patients with brain tumors with beta-elemene emulsive injection; type: in vivo, human
Procedure: In two instances, patients at the Second Affiliated Hospital of the Dalian Medical University were treated with the beta-elemene composition as an emulsive injection. The medical records were kept at that hospital.
The patient was hospitalized for surgery in July 1995. […] A beta-elemene emulsive injection was employed through 600 ml cervical artery intubation and 400 ml intravenous drip alternately once per day.
Due to the lung metastasis and the age of the patient, surgery was difficult to perform. The patient was hospitalized in mid November 1996.
The patient was treated with beta-elemene as prepared herein. […] In the middle of December 1996 the patient had another CT scan.

[6] = material with beta-elemene 65%, gamma and delta-elemene 20%, impurities 15%; cited from earlier work
L1210 leukemia = assay: Murine leukemia L1210, animal pharmacodynamic study; conditions: injection
[7] = tested on: rat ascitic reticulum cell sarcoma; conditions: material with beta-elemene 65%, gamma and delta-elemene 20%, impurities 15%; cited from earlier work
[8] = Patient I, thalamic glioblastoma

For `C=CC1(C)CCC(C(=C)C)CC1C(=C)C` (stereo not drawn) [beta-elemene, 1-methyl-1-vinyl-2,4-diisoprotenyl-cyclohexane], the life prolongation rate (S180 ascites cancer) was 90-321%, the life prolongation rate (EAC) was 85-310% and the “bone marrow inhibition or reduction of white blood cell count” value [1] was “no measurable bone marrow inhibition or reduction of white blood cell count”. The anti-tumor activity [2] was “marked anti-tumor activity”, the inhibition rate (hepatic solid tumor) was 10-30% and the life prolongation rate [3] was 103-224%. For the same molecule, the “ability to pass through the brain-blood barrier (BBB)” value [4] was “able to pass through the brain-blood barrier (BBB)”, the inhibition rate (S180 solid tumor) was 33-59% and the inhibition rate (cerebral neuroglioma) was 50-70%. The “survival with the tumor” value [5, 8] was 11 months, the “tumor size on CT scan” value [5, 8] was “no apparent reduction in tumor size” and the “growth of the tumor” value ([5]; Patient I, thalamic glioblastoma, cervical artery intubation and intravenous drip alternately once per day) was “quickly controlled”. For the same molecule, the “prolongation of the life of the patient” value ([5]; Patient II, based upon previous experience with patients at that stage of illness) was “more than 4 months”, the “tumor size on CT scan” value ([5]; Patient II, lung cancer with multiple metastasis to the brain, about one month of treatment) was “The size of the tumor was reduced” and the “side effects during treatment” value [6] was “Diarrhea and weight loss”. The life prolongation rate (L1210 leukemia) was 47-289% and the anti-tumor activity [7] was “marked anti-tumor activity”.
